From patent publication US20110171134A1, “(6S)-5-METHYLTETRAHYDROFOLIC ACID FOR THERAPY OF TISSUE INJURY” (priority 2008, published 2011)

Key:
[1] = system: dorsal root ganglia (DRG) neurons
Procedure: The nerve graft provides a supportive environment for axon growth. Removal of the nerve segment injures the peripheral axons of DRG neurons on one side (the “conditioning” lesion), whereas neurons on the opposite side are unaffected by the peripheral injury (“unconditioned”). At 2 weeks, a fluorescent tracer is injected 1 cm into the graft and is transported to the cell bodies of DRG neurons that are able to extend axons into the graft. The fluorescent tracer is taken up in the regenerated neurons only.
Sixty four adult male Sprague-Dawley rats (200-300 gm) were subjected to surgery under ketamine/xylazine anesthesia, as previously described (FIG. 1.) The cervical cord was exposed through a C3 laminectomy and dural opening. Using a pair of sharp jeweler's forceps, a well-defined 1 mm-deep injury was made in both posterior columns. A sciatic nerve segment harvested from the left hindlimb then was implanted at the injury site using 10-0 nylon sutures in the pia. The other end of the graft was left to lie freely under the skin.
Two weeks later, 5 μl of the retrograde tracer Fluorogold was placed into the nerve graft at a distance of 1 cm from the spinal cord. […] Rather, it is picked up solely by axons that have grown into the graft and is transported retrogradely in these axons.
Twenty four hours later, the animal was deeply anesthetized and perfused through the heart with 4% paraformaldehyde. The L5 dorsal root ganglia (DRG) were removed bilaterally, postfixed, incubated in 30% sucrose overnight, and quick frozen in Histo Prep (TM). Sections were cut at 10 μm with a cryostat, floated on pretreated glass slides, and stored at −80° C.
Animals were treated with intraperitoneal doses of (6S)-5-methyltetrahydrofolic acid ranging from 10 to 800 μg/kg, starting 3 days before the injury and given daily for 2 weeks.
Dorsal root ganglion sections were examined under a fluorescence microscope and the number of fluorescently labeled cells was counted (see FIG. 1.B). The same sections were then counterstained with cresyl violet to reveal the cell somas of all neurons in the DRG. Fluorescently labeled cells and total cells were counted in treated and control animals by an observer unaware of the treatment conditions. The percentage of labeled DRG cells in each animal was calculated. To determine neuronal numbers accurately, the method of Abercombie was used, in which only cells with visible nucleoli are counted.
The Wilcoxon rank-sum test and box-and-whiskers plots were used to compare the different groups.

[2] = system: dorsal root ganglia (DRG) neurons; settings: cited from earlier work
[3] = regeneration of axons into peripheral nerve grafts after damage to the spinal cord

| SMILES | percentage of conditioned DRG neurons that were fluorescently labeled ([1]; 80 ug/kg daily, 3 days before injury to 2 weeks after, with conditioning peripheral nerve lesion, mean ± SEM, n=13) | mean neurons per ganglion regenerating, treatment combined with peripheral injury ([1]; 80 ug/kg, conditioned DRG) [neurons per ganglion] | spinal regeneration, conditioned animals compared with controls, highest dose ([1]; 800 ug/kg, conditioned) | spinal regeneration, unconditioned group, highest dose ([1]; 800 ug/kg, unconditioned) | regeneration in unconditioned DRG in treated animals (FIG. 2) ([1]; 10-400 g/kg as printed, intraperitoneal daily, all treated groups except 800 ug/kg) | mean labeled neurons per ganglion, unconditioned DRG ([1]; 80 N-g/kg intraperitoneal daily, from 3 days before injury for 2 weeks, absence of peripheral nerve injury, n=13) | percentage of labeled unconditioned DRG neurons ([1]; 80 N-g/kg intraperitoneal daily, absence of peripheral nerve injury, mean ± SEM, n=13) | regeneration of conditioned DRG at doses higher or lower than 80 ug/kg ([1]; conditioned, compared with the 80 ug/kg dose) | axons per ganglion regenerating, treatment without peripheral nerve injury ([1]; optimal dose of 80 ug/kg, unconditioned) | increase in regenerative efficacy [1, 3] [%] | regeneration observed with folic acid ([2]; mean ± SEM, n=15, Iskandar, Ann Neurol. 2004) | increase in regenerative efficacy (folic acid comparison) [2, 3] |
| --- | --- | --- | --- | --- | --- | --- | --- | --- | --- | --- | --- | --- |
| CN1c2c(nc(N)[nH]c2=O)NC[C@@H]1CNc1ccc(C(=O)N[C@@H](CCC(=O)O)C(=O)O)cc1 [(6S)-5-methyltetrahydrofolic acid] | 30.68%±2.97 | 980 | decreased regeneration | no evidence of spinal regeneration | Measurable regeneration | 320 labeled neurons per ganglion | 10.25%±2.30 | less effective | approximately 319 axons per ganglion | ≥ 30 | – | – |
| Nc1nc2ncc(CNc3ccc(C(=O)N[C@@H](CCC(=O)O)C(=O)O)cc3)nc2c(=O)[nH]1 [folic acid] | – | – | – | – | – | – | – | – | – | – | 16.26%±1.12 | approximately 16% |
